Assay results from ChEMBL document CHEMBL1201862, “PubChem BioAssay data set” (2004).
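Method: 48-hour compound exposure of cells in 96-well plates, five concentrations, linear interpolation of endpoints. GI50 is the concentration that inhibits growth by half.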 Activity calls are given as the source filed them. No stated cut-off is given here; in the data, active = GI50 up to about 1.1 µM and inactive = higher.

Key:
Assay in all cases: NCI tumour cell line growth inhibition, 48 h
[1] = tested on: SW-620
[2] = tested on: NCI-H522
[3] = tested on: SF-268
[4] = tested on: SNB-75
[5] = tested on: SNB-19
[6] = tested on: SK-MEL-2
[7] = tested on: HL-60
[8] = tested on: 786-0
[9] = tested on: MOLT-4
[10] = tested on: EKVX
[11] = tested on: Malme-3M
[12] = tested on: LOX IMVI
[13] = tested on: A549
[14] = tested on: KM12
[15] = tested on: HOP-62
[16] = tested on: NCI-H23
[17] = tested on: UACC-62
[18] = tested on: HCT-15
[19] = tested on: UO-31
[20] = tested on: IGROV-1

With `Cc1c(C#N)c(N)[nH]c(=S)c1C#N` the GI50 [1] was > 100 µM (inactive), the GI50 [2] was > 100 µM (inactive) and the GI50 [3] was > 100 µM (inactive). For the same compound, the GI50 [4] was > 100 µM (inactive), the GI50 [5] was > 100 µM (inactive) and the GI50 [6] was > 100 µM (inactive). For the same compound, the GI50 [7] was > 100 µM (inactive), the GI50 [8] was > 100 µM (inactive) and the GI50 [9] was > 100 µM (inactive). The GI50 [10] was > 100 µM (inactive), the GI50 [11] was > 100 µM (inactive) and the GI50 [12] was > 100 µM (inactive). For the same compound, the GI50 [13] was > 100 µM (inactive), the GI50 [14] was > 100 µM (inactive) and the GI50 [15] was > 100 µM (inactive). The GI50 [16] was > 100 µM (inactive), the GI50 [17] was > 100 µM (inactive) and the GI50 [18] was greater than 100 µM. For the same compound, the GI50 [19] was > 100 µM (inactive) and the GI50 [20] was > 100 µM (inactive).
With `Brc1ccc2[nH]cc([C@@H]3CN[C@@H](c4c[nH]c5ccc(Br)cc45)CN3)c2c1` the GI50 [1] was 4.18 µM (inactive), the GI50 [2] was 2.21 µM (inactive) and the GI50 [3] was 10.4 µM (inactive). For the same compound, the GI50 [4] was 2.78 µM (inactive), the GI50 [5] was 11.4 µM (inactive) and the GI50 [6] was 8.95 µM (inactive). For the same compound, the GI50 [7] was 1.82 µM (inactive), the GI50 [8] was 3.94 µM (inactive) and the GI50 [9] was 1.98 µM (inactive). The GI50 [10] was 5.57 µM (inactive), the GI50 [11] was 14.8 µM (inactive) and the GI50 [12] was 1.66 µM (inactive). The GI50 [13] was 6.15 µM (inactive), the GI50 [14] was 2.07 µM (inactive) and the GI50 [15] was 8.18 µM (inactive). The GI50 [16] was 9.95 µM (inactive), the GI50 [17] was 7.52 µM (inactive) and the GI50 [18] was 9.44 µM. The GI50 [19] was 2.42 µM (inactive) and the GI50 [20] was 3.41 µM (inactive).
With `CC(C)(C)c1cc(C(=O)/C=C/c2ccc3c(c2)OCO3)cc(C(C)(C)C)c1O` the GI50 [1] was 5.96 µM (inactive), the GI50 [2] was 11.9 µM (inactive) and the GI50 [3] was 8.79 µM (inactive). The GI50 [4] was 3.2 µM (inactive), the GI50 [5] was 13.3 µM (inactive) and the GI50 [6] was 3.26 µM (inactive). For the same compound, the GI50 [7] was 3.07 µM (inactive), the GI50 [8] was 6.62 µM (inactive) and the GI50 [9] was 5.6 µM (inactive). For the same compound, the GI50 [10] was 21.9 µM (inactive), the GI50 [11] was 32.4 µM (inactive) and the GI50 [12] was 8.32 µM (inactive). The GI50 [13] was 9.64 µM (inactive), the GI50 [14] was 5.05 µM (inactive) and the GI50 [15] was 19.4 µM (inactive). The GI50 [16] was 9.82 µM (inactive), the GI50 [17] was 6.04 µM (inactive) and the GI50 [18] was 4.83 µM. The GI50 [19] was 6.38 µM (inactive) and the GI50 [20] was 17.9 µM (inactive).
With `COC(=O)c1ccc(NCc2cc(O)c3ccccc3c2O)cc1` the GI50 [1] was 12.9 µM (inactive), the GI50 [2] was 16.1 µM (inactive) and the GI50 [3] was 22.4 µM (inactive). For the same compound, the GI50 [4] was 22.5 µM (inactive), the GI50 [5] was 22.2 µM (inactive) and the GI50 [6] was 18.2 µM (inactive). The GI50 [7] was 3.3 µM (inactive), the GI50 [8] was 16.1 µM (inactive) and the GI50 [9] was 2.81 µM (inactive). For the same compound, the GI50 [10] was 18.3 µM (inactive), the GI50 [11] was 2.56 µM (inactive) and the GI50 [12] was 3.48 µM (inactive). For the same compound, the GI50 [13] was 10.8 µM (inactive), the GI50 [14] was 14.8 µM (inactive) and the GI50 [15] was 14.4 µM (inactive). For the same compound, the GI50 [16] was 6.65 µM (inactive), the GI50 [17] was 3.67 µM (inactive) and the GI50 [18] was 8.49 µM. For the same compound, the GI50 [19] was 13.1 µM (inactive) and the GI50 [20] was 11.4 µM (inactive).
With `CCOC(=O)Cn1c(=O)[nH]c(=O)c2[nH]cnc21` the GI50 [1] was > 100 µM (inactive), the GI50 [2] was > 100 µM (inactive) and the GI50 [3] was > 100 µM (inactive). For the same compound, the GI50 [4] was > 100 µM (inactive), the GI50 [5] was > 100 µM (inactive) and the GI50 [6] was > 100 µM (inactive). The GI50 [7] was > 100 µM (inactive), the GI50 [8] was > 100 µM (inactive) and the GI50 [9] was > 100 µM (inactive). The GI50 [10] was > 100 µM (inactive), the GI50 [11] was > 100 µM (inactive) and the GI50 [12] was > 100 µM (inactive). The GI50 [13] was > 100 µM (inactive), the GI50 [14] was > 100 µM (inactive) and the GI50 [15] was > 100 µM (inactive). The GI50 [16] was > 100 µM (inactive), the GI50 [17] was > 100 µM (inactive) and the GI50 [18] was greater than 100 µM. For the same compound, the GI50 [19] was > 100 µM (inactive) and the GI50 [20] was > 100 µM (inactive).
For `C=C(C)[C@@H]1CC[C@]2(C(=O)O)CC[C@]3(C)[C@H](CC[C@@H]4[C@@]5(C)CC[C@H](O)C(C)(C)[C@@H]5CC[C@]43C)[C@@H]12` [BETULINIC ACID], the GI50 [1] was 18.2 µM (inactive), the GI50 [2] was 3.21 µM (inactive) and the GI50 [3] was 7.6 µM (inactive). For the same compound, the GI50 [4] was 8.87 µM (inactive), the GI50 [5] was 13.7 µM (inactive) and the GI50 [6] was 12.4 µM (inactive). The GI50 [7] was 2.97 µM (inactive), the GI50 [8] was 10.2 µM (inactive) and the GI50 [9] was 4.51 µM (inactive). For the same compound, the GI50 [10] was 16.1 µM (inactive), the GI50 [11] was 7.59 µM (inactive) and the GI50 [12] was 11.3 µM (inactive). For the same compound, the GI50 [13] was 4.88 µM (inactive), the GI50 [14] was 5.93 µM (inactive) and the GI50 [15] was 8.36 µM (inactive). The GI50 [16] was 2.58 µM (inactive), the GI50 [17] was 14.1 µM (inactive) and the GI50 [18] was 8.67 µM. For the same compound, the GI50 [19] was 11 µM (inactive) and the GI50 [20] was 11.9 µM (inactive).
In the case of `COc1ccc(-c2cc(=O)c3c(O)c(OC)c(OC)c(OC)c3o2)cc1` [GARDENIN B], the GI50 [1] is reported as 2.13 µM (inactive), the GI50 [2] is reported as 6.58 µM (inactive) and the GI50 [3] is reported as > 68.4 µM (inactive). For the same compound, the GI50 [4] was 10.2 µM (inactive), the GI50 [5] was 25.4 µM (inactive) and the GI50 [6] was 12.8 µM (inactive). For the same compound, the GI50 [7] was 0.863 µM (active), the GI50 [8] was 21.5 µM (inactive) and the GI50 [9] was > 100 µM (inactive). For the same compound, the GI50 [10] was > 100 µM (inactive), the GI50 [11] was > 28.6 µM (inactive) and the GI50 [12] was 17.6 µM (inactive). For the same compound, the GI50 [13] was 10.1 µM (inactive), the GI50 [14] was 0.92 µM (active) and the GI50 [15] was 24.5 µM (inactive). For the same compound, the GI50 [16] was > 36.3 µM (inactive), the GI50 [17] was 45.3 µM (inactive) and the GI50 [18] was 2.37 µM. The GI50 [19] was > 100 µM (inactive) and the GI50 [20] was 2.33 µM (inactive).
